# Measurements reported in PubChem BioAssay AID1845208 (Molecular Pharmacology Branch, DTP, NCI, 2023).
# Tested on: NCI-H196 SCLC complex tumor spheroid viability
# Assay: Anticancer human tumor NCI-H196 cell line growth inhibition;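 also: spheroids exposed to compounds for 7 days before readout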;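 as to viability, T/C: 100% = DMSO vehicle control wells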
# Settings: for IC50: curve of first compound; for viability, T/C: stronger effect = lower value
# Method in brief: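 Single agents and combinations were tested on spheroids built from tumor cells plus HUVEC and hMSC, at half-log dilutions starting at or near clinical Cmax, else 10 microM; final DMSO 0.25% (v/v).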
# [1] = second compound 1 µM, first compound 0.0949 µM
# [2] = second compound 1 µM, first compound 0.3 µM
# [3] = second compound 1 µM, first compound 0.949 µM
# [4] = second compound 1 µM, first compound 3 µM
# [5] = second compound 3.16 µM, first compound 0.0949 µM
# [6] = second compound 3.16 µM, first compound 0.3 µM
# [7] = second compound 3.16 µM, first compound 0.949 µM
# [8] = second compound 3.16 µM, first compound 3 µM
# [9] = second compound 10 µM, first compound 0.0949 µM
# [10] = second compound 10 µM, first compound 0.3 µM
# [11] = second compound 10 µM, first compound 0.949 µM
# [12] = second compound 10 µM, first compound 3 µM
# [13] = second compound 31.6 µM, first compound 0.0949 µM
# [14] = second compound 31.6 µM, first compound 0.3 µM
# [15] = second compound 31.6 µM, first compound 0.949 µM
# [16] = second compound 31.6 µM, first compound 3 µM
# [17] = second compound 100 µM, first compound 0.0949 µM
# [18] = second compound 100 µM, first compound 0.3 µM
# [19] = second compound 100 µM, first compound 0.949 µM
# [20] = second compound 100 µM, first compound 3 µM
structure (smiles),measurement,setting,value
COc1ccc([C@@H](O)c2cc(-c3ncnc4cc(N5CCOCC5)ccc34)c(F)cc2Cl)nn1 + COc1cc2c(cc1O)CCNC21CSC2c3c(OC(C)=O)c(C)c4c(c3C(COC1=O)N1C(O)C3Cc5cc(C)c(OC)c(O)c5C(C21)N3C)OCO4,IC50,second compound 30 pM,9.14 µM
same,IC50,second compound 94.9 pM,7.24 µM
same,IC50,second compound 0.0003 µM,2.97 µM
same,IC50,second compound 0.000949 µM,0.975 µM
same,IC50,second compound 0.003 µM,< 0.0316 µM
same,"viability, T/C","second compound 30 pM, first compound 0.0316 µM",103%
same,"viability, T/C","second compound 30 pM, first compound 0.1 µM",94.9%
same,"viability, T/C","second compound 30 pM, first compound 0.316 µM",93.8%
same,"viability, T/C","second compound 30 pM, first compound 1 µM",77.8%
same,"viability, T/C","second compound 30 pM, first compound 3.16 µM",62.6%
same,"viability, T/C","second compound 30 pM, first compound 10 µM",49%
same,"viability, T/C","second compound 94.9 pM, first compound 0.0316 µM",106%
same,"viability, T/C","second compound 94.9 pM, first compound 0.1 µM",107%
same,"viability, T/C","second compound 94.9 pM, first compound 0.316 µM",93.6%
same,"viability, T/C","second compound 94.9 pM, first compound 1 µM",75.4%
same,"viability, T/C","second compound 94.9 pM, first compound 3.16 µM",60%
same,"viability, T/C","second compound 94.9 pM, first compound 10 µM",46%
same,"viability, T/C","second compound 0.0003 µM, first compound 0.0316 µM",99%
same,"viability, T/C","second compound 0.0003 µM, first compound 0.1 µM",96.7%
same,"viability, T/C","second compound 0.0003 µM, first compound 0.316 µM",91.1%
same,"viability, T/C","second compound 0.0003 µM, first compound 1 µM",69.5%
same,"viability, T/C","second compound 0.0003 µM, first compound 3.16 µM",50.2%
same,"viability, T/C","second compound 0.0003 µM, first compound 10 µM",32.5%
same,"viability, T/C","second compound 0.000949 µM, first compound 0.0316 µM",81.8%
same,"viability, T/C","second compound 0.000949 µM, first compound 0.1 µM",80.6%
same,"viability, T/C","second compound 0.000949 µM, first compound 0.316 µM",78.1%
same,"viability, T/C","second compound 0.000949 µM, first compound 1 µM",45.3%
same,"viability, T/C","second compound 0.000949 µM, first compound 3.16 µM",26.6%
same,"viability, T/C","second compound 0.000949 µM, first compound 10 µM",9.62%
same,"viability, T/C","second compound 0.003 µM, first compound 0.0316 µM",8.41%
same,"viability, T/C","second compound 0.003 µM, first compound 0.1 µM",3.38%
same,"viability, T/C","second compound 0.003 µM, first compound 0.316 µM",3.43%
same,"viability, T/C","second compound 0.003 µM, first compound 1 µM",0.71%
same,"viability, T/C","second compound 0.003 µM, first compound 3.16 µM",0.82%
same,"viability, T/C","second compound 0.003 µM, first compound 10 µM",0.59%
Cn1ncnc1[C@H]1c2n[nH]c(=O)c3cc(F)cc(c23)N[C@@H]1c1ccc(F)cc1 + Cn1nnc2c(C(N)=O)ncn2c1=O,IC50,second compound 1 µM,> 3 µM
same,IC50,second compound 3.16 µM,> 3 µM
same,IC50,second compound 10 µM,> 3 µM
same,IC50,second compound 31.6 µM,> 3 µM
same,IC50,second compound 100 µM,> 3 µM
same,"viability, T/C","second compound 1 µM, first compound 0.00949 µM",103%
same,"viability, T/C","second compound 1 µM, first compound 0.03 µM",92%
same,"viability, T/C",[1],99.5%
same,"viability, T/C",[2],95.5%
same,"viability, T/C",[3],86.6%
same,"viability, T/C",[4],94%
same,"viability, T/C","second compound 3.16 µM, first compound 0.00949 µM",105%
same,"viability, T/C","second compound 3.16 µM, first compound 0.03 µM",105%
same,"viability, T/C",[5],104%
same,"viability, T/C",[6],103%
same,"viability, T/C",[7],88.9%
same,"viability, T/C",[8],99.5%
same,"viability, T/C","second compound 10 µM, first compound 0.00949 µM",104%
same,"viability, T/C","second compound 10 µM, first compound 0.03 µM",100%
same,"viability, T/C",[9],104%
same,"viability, T/C",[10],90.9%
same,"viability, T/C",[11],110%
same,"viability, T/C",[12],89.2%
same,"viability, T/C","second compound 31.6 µM, first compound 0.00949 µM",104%
same,"viability, T/C","second compound 31.6 µM, first compound 0.03 µM",91.6%
same,"viability, T/C",[13],94.8%
same,"viability, T/C",[14],93.2%
same,"viability, T/C",[15],100%
same,"viability, T/C",[16],91.3%
same,"viability, T/C","second compound 100 µM, first compound 0.00949 µM",102%
same,"viability, T/C","second compound 100 µM, first compound 0.03 µM",94.5%
same,"viability, T/C",[17],94.5%
same,"viability, T/C",[18],94.8%
same,"viability, T/C",[19],99%
same,"viability, T/C",[20],89.5%
O=C(c1cc(Cc2n[nH]c(=O)c3ccccc23)ccc1F)N1CCN(C(=O)C2CC2)CC1 + Cn1nnc2c(C(N)=O)ncn2c1=O,IC50,second compound 1 µM,> 30 µM
same,IC50,second compound 3.16 µM,> 30 µM
same,IC50,second compound 10 µM,> 30 µM
same,IC50,second compound 31.6 µM,> 30 µM
same,IC50,second compound 100 µM,> 30 µM
same,"viability, T/C",[1],102%
same,"viability, T/C",[2],102%
same,"viability, T/C",[3],93.3%
same,"viability, T/C",[4],89.1%
same,"viability, T/C","second compound 1 µM, first compound 9.49 µM",86.1%
same,"viability, T/C","second compound 1 µM, first compound 30 µM",83.7%
same,"viability, T/C",[5],97.7%
same,"viability, T/C",[6],94.3%
same,"viability, T/C",[7],104%
same,"viability, T/C",[8],98.1%
same,"viability, T/C","second compound 3.16 µM, first compound 9.49 µM",85.5%
same,"viability, T/C","second compound 3.16 µM, first compound 30 µM",79.8%
same,"viability, T/C",[9],99.6%
same,"viability, T/C",[10],97.9%
same,"viability, T/C",[11],92.6%
same,"viability, T/C",[12],95.2%
same,"viability, T/C","second compound 10 µM, first compound 9.49 µM",92.4%
same,"viability, T/C","second compound 10 µM, first compound 30 µM",90.8%
same,"viability, T/C",[13],101%
same,"viability, T/C",[14],101%
same,"viability, T/C",[15],100%
same,"viability, T/C",[16],106%
same,"viability, T/C","second compound 31.6 µM, first compound 9.49 µM",98.7%
same,"viability, T/C","second compound 31.6 µM, first compound 30 µM",86.8%
same,"viability, T/C",[17],95.6%
same,"viability, T/C",[18],96.5%
same,"viability, T/C",[19],98.7%
same,"viability, T/C",[20],87.6%
same,"viability, T/C","second compound 100 µM, first compound 9.49 µM",86.7%
same,"viability, T/C","second compound 100 µM, first compound 30 µM",76.2%
